Tests used:
[1] = test system: barnyardgrass; assay: Test C flooded paddy test; assay type: in vivo, Echinochloa crus-galli; details: Flood, scale 0 to 100 (0 no effect, 100 complete control), 13 to 15 days
Procedure, shortened: (§1)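 Greenhouse pots flooded to 3 cm above soil at time of treatment received compound via the water, which stayed at that level.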

[2] = test system: pigweed; assay: Test A preemergence; assay type: in vivo, Amaranthus retroflexus
Procedure, shortened: (§2)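 Scoring: eye-based comparison with untreated controls, 0 for no effect through 100 for complete control, at about day 10. Treatments: directed soil spray preemergence; foliar spray postemergence on 2–10 cm plants at the one- to two-leaf stage. Medium: loam soil with sand.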

[3] = test system: barnyardgrass; assay: Test B flooded paddy test; assay type: in vivo, Echinochloa crus-galli; details: Flood, 250 g ai/ha; 0 to 100 scale where 0 is no effect and 100 is complete control
Procedure, shortened: (§3)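 Plants at 2-leaf stage; pots flooded to 3 cm above soil and compound applied directly into paddy water, depth held throughout. After 13 to 15 days in greenhouse, visual rating versus controls on 0 (no effect) to 100 (complete control) scale.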

[4] = test system: sedge, umbrella; assay: Test C flooded paddy test; assay type: in vivo, Cyperus difformis; details: Flood, scale 0 to 100 (0 no effect, 100 complete control), 13 to 15 days
Procedure, shortened: as §1

[5] = test system: barnyardgrass; assay: Test A postemergence; assay type: in vivo, Echinochloa crus-galli; details: 0 to 100 scale where 0 is no effect and 100 is complete control
Procedure, shortened: as §2

[6] = test system: ducksalad; assay: Test C flooded paddy test; assay type: in vivo, Heteranthera limosa; details: Flood, scale 0 to 100 (0 no effect, 100 complete control), 13 to 15 days
Procedure, shortened: as §1

[7] = test system: velvetleaf; assay: Test A postemergence; assay type: in vivo, Abutilon theophrasti; details: 0 to 100 scale where 0 is no effect and 100 is complete control
Procedure, shortened: as §2

[8] = test system: wheat; assay: Test A preemergence; assay type: in vivo, Triticum aestivum
Procedure, shortened: as §2

[9] = test system: Heteranthera limosa; assay: Test B flooded paddy test; assay type: in vivo; details: Flood, 250 g ai/ha; 0 to 100 scale where 0 is no effect and 100 is complete control
Procedure, shortened: as §3

[10] = test system: pigweed; assay: Test A postemergence; assay type: in vivo, Amaranthus retroflexus; details: 0 to 100 scale where 0 is no effect and 100 is complete control
Procedure, shortened: as §2

[11] = test system: large (Lg) crabgrass; assay: Test A postemergence; assay type: in vivo, Digitaria sanguinalis; details: 0 to 100 scale where 0 is no effect and 100 is complete control
Procedure, shortened: as §2

[12] = test system: barnyardgrass; assay: Test A preemergence; assay type: in vivo, Echinochloa crus-galli
Procedure, shortened: as §2

[13] = test system: rice; assay: Test C flooded paddy test; assay type: in vivo, Oryza sativa; details: Flood, scale 0 to 100 (0 no effect, 100 complete control), 13 to 15 days
Procedure, shortened: as §1

[14] = test system: giant foxtail; assay: Test A preemergence; assay type: in vivo, Setaria faberii
Procedure, shortened: as §2

[15] = test system: large (Lg) crabgrass; assay: Test A preemergence; assay type: in vivo, Digitaria sanguinalis
Procedure, shortened: as §2

[16] = test system: wheat; assay: Test A postemergence; assay type: in vivo, Triticum aestivum; details: 0 to 100 scale where 0 is no effect and 100 is complete control
Procedure, shortened: as §2

[17] = test system: giant foxtail; assay: Test A postemergence; assay type: in vivo, Setaria faberii; details: 0 to 100 scale where 0 is no effect and 100 is complete control
Procedure, shortened: as §2

[18] = test system: velvetleaf; assay: Test A preemergence; assay type: in vivo, Abutilon theophrasti
Procedure, shortened: as §2

[19] = test system: morningglory; assay: Test A postemergence; assay type: in vivo, Ipomoea spp.; details: 0 to 100 scale where 0 is no effect and 100 is complete control
Procedure, shortened: as §2

[20] = test system: corn; assay: Test A preemergence; assay type: in vivo, Zea mays
Procedure, shortened: as §2

[21] = test system: sedge, umbrella; assay: Test B flooded paddy test; assay type: in vivo, Cyperus difformis; details: Flood, 250 g ai/ha; 0 to 100 scale where 0 is no effect and 100 is complete control
Procedure, shortened: as §3

[22] = test system: rice; assay: Test B flooded paddy test; assay type: in vivo, Oryza sativa; details: Flood, 250 g ai/ha; 0 to 100 scale where 0 is no effect and 100 is complete control
Procedure, shortened: as §3

[23] = test system: morningglory; assay: Test A preemergence; assay type: in vivo, Ipomoea spp.
Procedure, shortened: as §2

[24] = test system: corn; assay: Test A postemergence; assay type: in vivo, Zea mays; details: 0 to 100 scale where 0 is no effect and 100 is complete control
Procedure, shortened: as §2

[25] = 500 g ai/ha, 0 to 100 scale where 0 is no effect and 100 is complete control

FC(F)c1cccc(Oc2ncc(Br)cn2)c1-n1cc(I)cn1 [Compound 185]
Plant response rating, Barnyardgrass ([1]; 31 g ai/ha): 0
Plant response rating, Barnyardgrass ([1]; 62 g ai/ha): 0
Plant response rating, Barnyardgrass ([1]; 125 g ai/ha): 0
Plant response rating, Barnyardgrass ([1]; 250 g ai/ha): 0
Pigweed plant response rating (0 to 100 scale) ([2]; 125 g ai/ha): 100
Pigweed plant response rating [2, 25]: 100
Plant response rating, Barnyardgrass [3]: 0
Plant response rating, Sedge, Umbrella ([4]; 31 g ai/ha): 0
Plant response rating, Sedge, Umbrella ([4]; 62 g ai/ha): 50
Plant response rating, Sedge, Umbrella ([4]; 125 g ai/ha): 50
Plant response rating, Sedge, Umbrella ([4]; 250 g ai/ha): 85
Barnyardgrass plant response rating ([5]; 125 g ai/ha): 50
Plant response rating, Barnyardgrass ([5]; 500 g ai/ha): 80
Plant response rating, Ducksalad ([6]; 31 g ai/ha): 0
Plant response rating, Ducksalad ([6]; 62 g ai/ha): 0
Plant response rating, Ducksalad ([6]; 125 g ai/ha): 0
Plant response rating, Ducksalad ([6]; 250 g ai/ha): 40
Velvetleaf plant response rating ([7]; 125 g ai/ha): 90
Plant response rating, Velvetleaf ([7]; 500 g ai/ha): 100
Wheat plant response rating (0 to 100 scale) ([8]; 125 g ai/ha): 0
Wheat plant response rating [8, 25]: 10
Plant response rating, Ducksalad [9]: 95
Pigweed plant response rating ([10]; 125 g ai/ha): 100
Plant response rating, Pigweed ([10]; 500 g ai/ha): 100
Crabgrass, Large plant response rating ([11]; 125 g ai/ha): 60
Plant response rating, Crabgrass, Large ([11]; 500 g ai/ha): 90
Barnyardgrass plant response rating (0 to 100 scale, 0 is no effect, 100 is complete control) ([12]; 125 g ai/ha): 40
Barnyardgrass plant response rating [12, 25]: 80
Plant response rating, Rice ([13]; 31 g ai/ha): 0
Plant response rating, Rice ([13]; 62 g ai/ha): 0
Plant response rating, Rice ([13]; 125 g ai/ha): 0
Plant response rating, Rice ([13]; 250 g ai/ha): 15
Foxtail, Giant plant response rating (0 to 100 scale) ([14]; 125 g ai/ha): 90
Foxtail, Giant plant response rating [14, 25]: 100
Crabgrass, Large plant response rating (0 to 100 scale) ([15]; 125 g ai/ha): 90
Crabgrass, Large plant response rating [15, 25]: 100
Wheat plant response rating ([16]; 125 g ai/ha): 0
Plant response rating, Wheat ([16]; 500 g ai/ha): 40
Foxtail, Giant plant response rating ([17]; 125 g ai/ha): 50
Plant response rating, Foxtail, Giant ([17]; 500 g ai/ha): 80
Velvetleaf plant response rating (0 to 100 scale) ([18]; 125 g ai/ha): 40
Velvetleaf plant response rating [18, 25]: 80
Morningglory plant response rating ([19]; 125 g ai/ha): 70
Plant response rating, Morningglory ([19]; 500 g ai/ha): 90
Corn plant response rating (0 to 100 scale) ([20]; 125 g ai/ha): 0
Corn plant response rating [20, 25]: 10
Plant response rating, Sedge, Umbrella [21]: 90
Plant response rating, Rice [22]: 0
Morningglory plant response rating (0 to 100 scale) ([23]; 125 g ai/ha): 10
Morningglory plant response rating [23, 25]: 30
Corn plant response rating ([24]; 125 g ai/ha): 10
Plant response rating, Corn ([24]; 500 g ai/ha): 20
